The first series deals with Caco-2. The following applies: human, Caco-2, 2 h.
`CCCc1nc2c(C)cc(-c3nc4ccccc4n3C)cc2n1Cc1ccc(-c2ccccc2C(=O)O)cc1` returned a logPapp of -4.82.

Take `Cc1ccc(/C(=C\CN2CCCC2)c2cccc(/C=C/C(=O)O)n2)cc1` [ACRIVASTINE]: the logPapp is recorded as -5.72.

Take `CC1(C)S[C@@H]2[C@H](NC(=O)[C@H](N)c3ccc(O)cc3)C(=O)N2[C@H]1C(=O)O` [AMOXICILLIN]: the permeability entry was “permeable”.

As for `Cc1cc(=O)n(-c2ccccc2)n1C` [ANTIPYRINE], the permeability result is recorded as “permeable”.

Take `NC(=O)N1c2ccccc2C=Cc2ccccc21` [CARBAMAZEPINE]: the logPapp is recorded as -5.3 and the permeability entry is recorded as “permeable”.

Compound `CN/C(=N/CCSCc1nc[nH]c1C)NC#N` [CIMETIDINE] displayed a logPapp of -5.88.

Regarding `Clc1cccc(Cl)c1N=C1NCCN1` [CLONIDINE], the logPapp was -4.66.

With `NCCc1ccc(O)c(O)c1` [DOPAMINE], the logPapp is given as -5.03.

The compound `CNC[C@H](O)c1ccc(O)c(O)c1` [EPINEPHRINE] showed a logPapp of -6.02.

In the case of `CC(C)n1c(/C=C/C(O)CC(O)CC(=O)O)c(-c2ccc(F)cc2)c2ccccc21` (centres undefined) [FLUVASTATIN], the permeability entry is on record as “permeable”.

For `CC(C(=O)O)c1cccc(C(=O)c2ccccc2)c1` (centres undefined) [KETOPROFEN], the permeability result is “permeable”.

`OC[C@@H](O)[C@@H](O)[C@H](O)[C@H](O)CO` [MANNITOL]: the permeability entry is “permeable”.

For the compound `C[C@](N)(Cc1ccc(O)c(O)c1)C(=O)O` [METHYLDOPA], the permeability entry is on record as “permeable”.

On to `COCCc1ccc(OCC(O)CNC(C)C)cc1` (centres undefined) [METOPROLOL], for which the permeability result was “permeable”.

`CC#Cc1cn([C@@H]2O[C@H](CO)[C@@H](O)[C@@H]2O)c(=O)[nH]c1=O` [NETIVUDINE] gave a logPapp of -6.17.

`CN1CCC[C@H]1c1cccnc1` [NICOTINE]: the logPapp is given as -4.58.

Compound `C=CCOc1ccccc1OCC(O)CNC(C)C` (centres undefined) [OXPRENOLOL] had a logPapp of -4.21.

Turning to `CC1(C)S[C@@H]2[C@H](NC(=O)Cc3ccccc3)C(=O)N2[C@H]1C(=O)O` [PENICILLIN G], the logPapp was -6.11.

In turn, `c1ccc(C2(N3CCCCC3)CCCCC2)cc1` [PHENCYCLIDINE] came in with a logPapp of -4.61.

`CC(C)NCC(O)COc1cccc2[nH]ccc12` (centres undefined) [PINDOLOL]: the logPapp is on record as -4.41.

In the case of `CC(C(=O)O)c1ccc2c(c1)Cc1cccnc1O2` (centres undefined) [PRANOPROFEN], the logPapp is -4.39.

`CC(=O)[C@H]1CC[C@H]2[C@@H]3CCC4=CC(=O)CC[C@]4(C)[C@H]3CC[C@]12C` [PROGESTERONE] came in with a logPapp of -4.55.

For the compound `CNC(=C[N+](=O)[O-])NCCSCc1ccc(CN(C)C)o1` [RANITIDINE], the logPapp was -6.2 and the permeability entry is “permeable”.

Turning to `O=C(O)c1cc(/N=N/c2ccc(S(=O)(=O)Nc3ccccn3)cc2)ccc1O` [SULFASALAZINE], the logPapp is reported as -6.61.

Compound `C[C@H](CCC(=O)NCCS(=O)(=O)O)[C@H]1CC[C@H]2[C@@H]3[C@H](O)C[C@@H]4C[C@H](O)CC[C@]4(C)[C@H]3C[C@H](O)[C@]12C` [TAUROCHOLIC ACID] registered a logPapp of -4.46.

Turning to `Cn1c(=O)c2[nH]cnc2n(C)c1=O.O` [THEOPHYLLINE], the logPapp is reported as -4.4 and the permeability entry was “permeable”.

For `CC(C(=O)O)c1ccc(C(=O)c2ccccc2)s1` (centres undefined) [TIAPROFENIC ACID], the logPapp was -4.41.

With `CC(C)(C)NC[C@H](O)COc1nsnc1N1CCOCC1` [TIMOLOL], the logPapp is given as -4.43.

As to `CNC(=NCCSCc1csc(N=C(N)N)n1)NC#N` [TIOTIDINE], the logPapp is listed as -5.66.

Consider `N[C@@H]1[C@H]2CN(c3nc4c(cc3F)c(=O)c(C(=O)O)cn4-c3ccc(F)cc3F)C[C@@H]12` [TROVAFLOXACIN], for which the logPapp is listed as -4.52.

A further series has as its system Caco-2. The following applies: human, Caco-2, 2 h. This is another data set of the same source.
For `CCOC(=O)[C@H](CCc1ccccc1)N[C@@H](C)C(=O)N1CCC[C@H]1C(=O)O`, the logPapp is -6.1.

Turning to `CC[C@H](C)C(=O)O[C@H]1C[C@H](O)C=C2C=C[C@H](C)[C@H](CC[C@@H](O)C[C@@H](O)CC(=O)O)[C@H]21` [PRAVASTATIN], the logPapp is -6.56.

In turn, `CC(C)[C@H](N)C(=O)OCCOCn1cnc2c(=O)[nH]c(N)nc21` [VALACYCLOVIR] returned a logPapp of -6.52.

The subject of another series is Caco-2. The following applies: human.
Take `CCOC(=O)[C@H](CCc1ccccc1)N[C@@H](C)C(=O)N1CCC[C@H]1C(=O)O`: the logPapp is reported as -5.7.

`CC[C@H](C)C(=O)O[C@H]1C[C@H](O)C=C2C=C[C@H](C)[C@H](CC[C@@H](O)C[C@@H](O)CC(=O)O)[C@H]21` [PRAVASTATIN] returned a logPapp of -5.64.

The compound `CC(C)[C@H](N)C(=O)OCCOCn1cnc2c(=O)[nH]c(N)nc21` [VALACYCLOVIR] gave a logPapp of -6.3.
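Throughout, for permeability: apparent permeability through Caco-2 cell membranes, with the permeated amount quantified by LC-MS/MS.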
